Experiment: xn = mol fraction of the nth substance listed

CCCCCO + CC#N
viscosity [mPa·s], 101 kPa
Details	298.15 K	303.15 K	308.15 K
x2 = 0.1083	2.485	1.966	1.752
x2 = 0.1933	1.918	1.703	1.519
x2 = 0.2503	1.717	1.477	1.334
x2 = 0.3407	1.33	1.2	1.088
x2 = 0.4797	0.963	0.879	0.804
x2 = 0.5899	0.747	0.688	0.636
x2 = 0.6833	0.619	0.569	0.527
x2 = 0.7642	0.525	0.486	0.458
x2 = 0.8347	0.452	0.428	0.41
x2 = 0.8958	0.418	0.392	0.369
x2 = 0.9508	0.374	0.357	0.342

CN(C)C=O + CC#N
Details	viscosity [mPa·s]
298.15 K, 101 kPa, x2 = 0.0113	0.794
298.15 K, 101 kPa, x2 = 0.0144	0.792
298.15 K, 101 kPa, x2 = 0.0841	0.761
298.15 K, 101 kPa, x2 = 0.103	0.747
298.15 K, 101 kPa, x2 = 0.1527	0.712
298.15 K, 101 kPa, x2 = 0.2044	0.685
298.15 K, 101 kPa, x2 = 0.2682	0.654
298.15 K, 101 kPa, x2 = 0.3131	0.615
298.15 K, 101 kPa, x2 = 0.3696	0.598
298.15 K, 101 kPa, x2 = 0.3798	0.603
298.15 K, 101 kPa, x2 = 0.4759	0.552
298.15 K, 101 kPa, x2 = 0.5317	0.529
298.15 K, 101 kPa, x2 = 0.5759	0.492
298.15 K, 101 kPa, x2 = 0.6348	0.448
298.15 K, 101 kPa, x2 = 0.6876	0.499
298.15 K, 101 kPa, x2 = 0.743	0.408
298.15 K, 101 kPa, x2 = 0.7906	0.382
298.15 K, 101 kPa, x2 = 0.8453	0.382
298.15 K, 101 kPa, x2 = 0.8954	0.345
298.15 K, 101 kPa, x2 = 0.9485	0.346
298.15 K, 101 kPa, x2 = 0.9723	0.333
303.15 K, 101 kPa, x2 = 0.1176	0.6994
303.15 K, 101 kPa, x2 = 0.2399	0.6372
303.15 K, 101 kPa, x2 = 0.4348	0.5495
303.15 K, 101 kPa, x2 = 0.5933	0.4816
303.15 K, 101 kPa, x2 = 0.7275	0.4283
303.15 K, 101 kPa, x2 = 0.8419	0.3842
303.15 K, 101 kPa, x2 = 0.9418	0.3496
303.15 K, 101.33 kPa, x2 = 0.0953	0.7392
303.15 K, 101.33 kPa, x2 = 0.1981	0.6991
303.15 K, 101.33 kPa, x2 = 0.3038	0.6537
303.15 K, 101.33 kPa, x2 = 0.3988	0.6046
303.15 K, 101.33 kPa, x2 = 0.5	0.5476
303.15 K, 101.33 kPa, x2 = 0.6013	0.494
303.15 K, 101.33 kPa, x2 = 0.6983	0.4471
303.15 K, 101.33 kPa, x2 = 0.8009	0.4023
303.15 K, 101.33 kPa, x2 = 0.8992	0.3607

ClC(Cl)=C(Cl)Cl + CC#N
303.15 K, 101.32 kPa
Details	viscosity [mPa·s]
x2 = 0.1294	0.7489
x2 = 0.1929	0.7334
x2 = 0.3101	0.699
x2 = 0.4022	0.6632
x2 = 0.4671	0.631
x2 = 0.5673	0.5728
x2 = 0.6707	0.505
x2 = 0.7358	0.4619
x2 = 0.846	0.3947
x2 = 0.9295	0.3522

c1ccccc1 + CC#N
101 kPa
Details	viscosity [mPa·s]
298.15 K, x2 = 0.0325	0.5825
298.15 K, x2 = 0.0341	0.58
298.15 K, x2 = 0.0416	0.5745
298.15 K, x2 = 0.0854	0.574
298.15 K, x2 = 0.142	0.5155
298.15 K, x2 = 0.2097	0.493
298.15 K, x2 = 0.2578	0.4835
298.15 K, x2 = 0.3076	0.479
298.15 K, x2 = 0.3588	0.459
298.15 K, x2 = 0.4192	0.4365
298.15 K, x2 = 0.4751	0.4295
298.15 K, x2 = 0.5205	0.4045
298.15 K, x2 = 0.5786	0.394
298.15 K, x2 = 0.6344	0.388
298.15 K, x2 = 0.6908	0.375
298.15 K, x2 = 0.7377	0.379
298.15 K, x2 = 0.7901	0.369
298.15 K, x2 = 0.7943	0.3555
298.15 K, x2 = 0.8416	0.3535
298.15 K, x2 = 0.8962	0.3455
298.15 K, x2 = 0.9472	0.3275
308.15 K, x1 = 0.1018	0.3278
308.15 K, x1 = 0.2042	0.3407
308.15 K, x1 = 0.303	0.3576
308.15 K, x1 = 0.4008	0.378
308.15 K, x1 = 0.4892	0.3939
308.15 K, x1 = 0.5921	0.4163
308.15 K, x1 = 0.6906	0.4413
308.15 K, x1 = 0.8017	0.4762
308.15 K, x1 = 0.8951	0.4954

CCCCC(C)=O + CC(=O)CC(C)C
298.15 K, 101 kPa
Details	viscosity [mPa·s]
x2 = 0.1164	0.581
x2 = 0.2196	0.575
x2 = 0.3357	0.571
x2 = 0.4413	0.566
x2 = 0.5503	0.562
x2 = 0.6632	0.558
x2 = 0.7765	0.553
x2 = 0.8841	0.548

COCC(C)O (stereo not drawn) + CC(=O)CC(C)C
298.15 K, 101 kPa
Details	viscosity [mPa·s]
x2 = 0.1057	1.373
x2 = 0.2037	1.167
x2 = 0.3075	1.006
x2 = 0.4185	0.875
x2 = 0.5295	0.774
x2 = 0.6413	0.696
x2 = 0.7612	0.63
x2 = 0.8745	0.582

O=[N+]([O-])c1ccccc1 + CC(=O)O
viscosity [mPa·s], 101 kPa
Details	x2 = 0.165	x2 = 0.3078	x2 = 0.4326	x2 = 0.5425	x2 = 0.6402	x2 = 0.7274	x2 = 0.8059	x2 = 0.8768	x2 = 0.9412
298.15 K	1.731	1.662	1.602	1.546	1.488	1.428	1.365	1.3	1.232
308.15 K	1.48	1.453	1.407	1.35	1.288	1.224	1.159	1.095	1.033
318.15 K	1.314	1.365	1.353	1.306	1.24	1.164	1.085	1.006	0.9289

ClC(Cl)=C(Cl)Cl + CC(=O)c1ccccc1
298.15 K, 101 kPa
Details	viscosity [mPa·s]
x2 = 0.1255	0.893
x2 = 0.3215	1.023
x2 = 0.5397	1.198
x2 = 0.7329	1.382
x2 = 0.9142	1.555

— the CheMixHub viscosity set
